Experimental data as given in patent US10464946B2, “Crystalline forms of thienopyrimidine compound” (HANMI PHARM. CO., LTD., priority 2015, dated 2019).

Assays:
[1] = Dynamic vapor sorption (DVS) hygroscopicity; type: physicochemical; conditions: relative humidity of 10% to 90%; for stability from the hygroscopic aspect: expected from the DVS result
Experimental: Dynamic vapor sorption (DVS) analysis was performed in a DVS advantage (Surface measurement system, United Kingdom) analyzer at 25° C. with a relative humidity of 0% to 90%. A sample in an amount of 10 mg was placed into a wire-mesh vapor sorption balance pan and then attached to a DVS advantage dynamic vapor sorption balance via surface measurement systems. Until a stable weight was achieved (99.5% completion of steps), the sample was applied to a ramping profile with a relative humidity of 10% to 90% with a 10% increase of the sample while maintaining the sample in each step. Upon completion of the sorption cycle, the sample was dried using the same process while maintaining a relative humidity of […]. The changes in the sample weight during the adsorption/desorption cycle (repeated 3 times) were recorded and the hygroscopicity of the sample was measured.

[2] = Storage stability under long-term and accelerated conditions; type: physicochemical; conditions: for stability under a long-term storage condition: temperature of 25° C. and relative humidity of 60%; for stability under an accelerated condition: temperature of 40° C. and relative humidity of 75%
Experimental: High performance liquid chromatography (HPLC) analysis was performed for the purposes of analyzing purity and contents such as a stability test, etc., using an Agilent 1100/1200 series HPLC Systems (Agilent, USA) analyzer, and the conditions used for HPLC were as follows.

SMILES	stability from the hygroscopic aspect [1]	water content / hygroscopic level in the DVS ([1]; 25° C.)	stability under a long-term storage condition [2]	stability under an accelerated condition [2]
C=CC(=O)Nc1cccc(Oc2nc(Nc3ccc(N4CCN(C)CC4)cc3)nc3ccsc23)c1 [Example 1, N-(3-(2-(4-(4-methylpiperazin-1-yl)phenylamino)thieno[3,2-d]pyrimidin-4-yloxy)phenyl)acrylamide]	stable	about 1.5%	–	–
C=CC(=O)Nc1cccc(Oc2nc(Nc3ccc(N4CCN(C)CC4)cc3)nc3ccsc23)c1 [Comparative Example 1, N-(3-(2-(4-(4-methylpiperazin-1-yl)phenylamino)thieno[3,2-d]pyrimidin-4-yloxy)phenyl)acrylamide, reference compound]	unstable	–	–	–
C=CC(=O)Nc1cccc(Oc2nc(Nc3ccc(N4CCN(C)CC4)cc3)nc3ccsc23)c1 [Example 4, N-(3-(2-(4-(4-methylpiperazin-1-yl)phenylamino)thieno[3,2-d]pyrimidin-4-yloxy)phenyl)acrylamide]	very stable	–	very stable	very stable
C=CC(=O)Nc1cccc(Oc2nc(Nc3ccc(N4CCN(C)CC4)cc3)nc3ccsc23)c1 [Example 3, N-(3-(2-(4-(4-methylpiperazin-1-yl)phenylamino)thieno[3,2-d]pyrimidin-4-yloxy)phenyl)acrylamide]	very stable	–	very stable	very stable
